In one data set the test system is CC(=O)C(C)C(C)=O. Description: purified protein, by the assay type. The following applies: other: apparent; photometric, oxygen-saturated buffer, substrate 10-200 μM; pH 7.5; 25.0 °C.
The next data set relates to CCCCC(=O)CC(C)=O. Briefly: purified protein, by the assay type. The following applies: other: apparent; photometric, oxygen-saturated buffer, substrate 10-200 μM; pH 7.5; 25.0 °C.
For another data set, the system named is CC(=O)C1CCCCC1=O. Briefly: purified protein, by the assay type. The following applies: other: apparent; photometric, oxygen-saturated buffer, substrate 10-200 μM; pH 7.5; 25.0 °C.
In another data set the test system is CC(=O)C1CCCC1=O. Briefly: purified protein, by the assay type. The note with it: other: apparent; photometric, oxygen-saturated buffer, substrate 10-200 μM; pH 7.5; 25.0 °C.
A further data set has as its system CCCCCC(=O)CC(C)=O. Briefly: purified protein, by the assay type. The following applies: other: apparent; photometric, oxygen-saturated buffer, substrate 10-200 μM; pH 7.5; 25.0 °C.
The next data set relates to CC(=O)CC(=O)C(C)(C)C. Description: purified protein, by the assay type. The following applies: other: apparent; photometric, oxygen-saturated buffer, substrate 10-200 μM; pH 7.5; 25.0 °C.
Data set [1] has as its target T1, 1,3-dicarbonyl-dioxygenase (Acinetobacter johnsonii, UniProt Q8GNT2). Briefly: Determination of enzyme-activity and stability versus pH and additives. The format is physicochemical. As to the method: Activity measurements were performed with the oxygen-electrode, with KH2PO4-buffers adjusted to various pH-values [5.0-9.0]. For stability measurements, the enzyme was diluted ten-fold and incubated at various pH-values [5.0-9.0]. The activity was measured periodically with the UV-activity-assay.

For the next data set, the system named is tRNA. The following applies: cited from earlier work.
The test system of a further data set is Salmonella typhimurium. The following applies: cited from earlier work.
In data set [2] the target is T1, 1,3-dicarbonyl-dioxygenase. Briefly: Substrate spectrum / apparent kinetic constants of purified 1,3-dicarbonyl-dioxygenase (UV assay and oxygen electrode). The following applies: for Vmaxrel. / KO2: apparent; for Vmaxrel.: relative to acetylacetone = 1.00, purified wild-type enzyme; for KO2: polarographic, estimated from rate of oxygen depletion, substrate 0.5-1 mM; for O2/Substrate: oxygen consumed per substrate, oxygen electrode. As to the method: (§1) The reaction rates were determined by using the microcomputer regression program provided with the spectrophotometer (Winspec) based on the first ten absorbance measurements made at 5-s intervals.
Substrates were dissolved at a concentration of 0.001-1 mM in KH2PO4-buffer, 50 mM, pH 7.5 using a 10 mM stock solution. Duplicate absorption-measurements of 20 different dilutions were performed at 25° C. The molar absorption coefficients were calculated by linear regression.
(§2) Oxygen consumption during the enzyme reaction was measured with an oxygen-electrode-cell (Digital Oxygen System Model 10, Rank Brothers Ltd., Cambridge, England) as described previously (Beechey, R. B. and Ribbons, D. W. (1971). ‘Methods in Microbiology’.V. 6B. Edited by J. R. Norris and D. W. Ribbons. Academic press, London. ‘Oxygen electrode measurements’ (Chapter II) pp. 29-52.). The reaction mixture contained air-saturated KH2PO4-buffer, 50 mM, pH 7.5 at 25° C. (thermostat). The oxygen-electrode was calibrated by the sodium-sulfite-method. Varying concentrations of substrate (0.01-0.3 mM) were added and the resulting decrease of oxygen was determined.
Assuming the Michaelis-Menten-equation, Vmax and Ks values were calculated by non-linear curve-fit by the program microcal-origin. KO2 was estimated by polarographic methods, adding non limiting amounts of substrate (0.5-1 mM) and graphically determining the oxygen concentration at the point of half of the maximum activity. Ks-values were similarly confirmed by polarographic methods, by stepwise addition of substrate to a final concentration of 20-150 μM.

Data set [3] addresses T1, 1,3-dicarbonyl-dioxygenase. Briefly: Products of various substrates determined by HPLC (cleavage stoichiometry, partially purified enzyme). The note with it: substrate 4 mM, 25° C., one hour; for Substrate % (remaining): remaining substrate calculated; for Acetate % / Methylglyoxal %: oxygen saturated buffer. The format is biochemical. The text has this: The products of the enzyme reaction were identified directly from the reaction mixture by in situ ^1H-NMR-spectroscopy (Pokorny, D., L. Brecker, M. Pogorevc, H. Griengl, W. Steiner, T. Kappe, and D. W. Ribbons. 1999. Proton-Nuclear Magnetic Resonance Analyses of the Substrate Specificity of a β-Ketolase from Pseudomonas putida, Acetopyruvate Hydrolase. J. Bacteriol. 181: 5051-5059.). Therefore a 200 MHz narrow bore magnet (Varian Gemini™ 2000, Varian, Inc., Palo Alto, Calif.) and a 5 mm broadband probe head were used. The NMR tube was rotated at 20 rps. For a lock a D2O vortex capillary was added to avoid ^1H/D exchange reactions. The overwhelming water-signal was suppressed with a presaturation method (Guéron, M., P. Plateau and M. Decorps. 1991. Solvent signal suppression in NMR. Prog. NMR Spectrosc. 23: 135-209. Hore, J. P. 1989. Solvent suppression. p. 64. In N. J. Oppenheimer and J. T. James (eds.), Methods Enzymol. 176. Academic Press, Inc., San Diego.). The following parameters were adjusted for a ^1H-frequency of 200 MHz: presaturation-duration of 1.0 s, ^1H-pulse-angle of 90, an acquisition-time of 2.0 s and a relaxation delay of 1.5 s. 64 Scans were accumulated and after a zero filling to 32 k datapoints the free induction decay was Fourier transformed. The water signal (4.70 ppm) was used as a reference. For standard reaction analytics HPLC-measurements were performed (Hewlett-Packard, column: Aminex-HPX-87H, UV- and RI-detector, eluent Sulfuric acid 0.005 M).
The cleavage-stoichiometry of several non-symmetrical substrates was also investigated, in order to be able to determine the regiospecificity of the enzyme. This was done by conversion of the respective substrate with partially purified enzyme. Methylglyoxal and acetate formed were measured by HPLC. Remaining substrate was calculated.

In data set [4] the target is wild-type 1,3-dicarbonyl-dioxygenase (Acinetobacter johnsonii, UniProt Q8GNT2). Description: Relative activity of wild-type enzyme at non-limiting substrate concentrations. It counts as biochemical. As to the method:
as §1, §2

For data set [5], the target named is T2, recombinant 1,3-dicarbonyl-dioxygenase (expressed in E.coli) (Acinetobacter johnsonii, UniProt Q8GNT2).
T2 construct: made in house; host or cells: E. coli XL1 Blue, plasmid pMS470 (tac promoter, NdeI/HindIII)
Description: Relative activity of recombinant protein at non-limiting substrate concentrations. The format is biochemical. As to the method: Expression constructs were expressed in E.coli XL1 Blue (Stratagene, La Jolla, Calif.), which was grown to an OD of 1 at 30° C. on rotatory shakers in erlenmeyer flasks, then induced with IPTG (0.3 mM) and incubated for another 5 hours.
as §1, §2

Data set [6] deals with T1, 1,3-dicarbonyl-dioxygenase. Description: Reaction analysis with purified enzyme by in situ 1H-NMR / HPLC. It counts as biochemical. The note with it: no cofactor added.
The conditions of data set [7]: cited from earlier work.
The mark [8] stands for this setting: repeated exposure, peroral and inhalation routes.
The mark [9] stands for this setting: relative activity, acetylacetone = 1.00, non-limiting substrate concentrations.
[10] abbreviates: glycerol 10%, glucose 12.5%, ascorbate 1 mM, bovine serum albumin 1-20 mg/mL, dithiothreitol 1 mM, mercaptoethanol 1 mM.

Like-named read-outs stand apart in the source and are kept apart here.

The values that follow come from patent US6790644B2, “1,3-dicarbonyl-dioxygenase—a new c-c-bond cleaving enzyme” (Biocatalytics, Inc., priority 2001, dated 2004).

The Km is the concentration of substrate that gives half-maximal velocity.

For the molecule “1,3-dicarbonyl-dioxygenase (Acinetobacter johnsonii)”, the Km amounted to 23.1 ± 6.8 µM in the data set on CC(=O)C(C)C(C)=O; 5.9 ± 1.5 µM with CCCCC(=O)CC(C)=O; 18.1 ± 4.2 µM in the data set with CC(=O)C1CCCCC1=O; 21.0 ± 6.1 µM with CC(=O)C1CCCC1=O; 7.5 ± 2.1 µM in the data set with CCCCCC(=O)CC(C)=O; 14.2 ± 3.7 µM with CC(=O)CC(=O)C(C)(C)C.

Regarding `O[C@H](CS)[C@H](O)CS` (racemic) [dithiothreitol], in data set [1], the “effect of potential stabilizing agent on enzyme stability” value (from here on “effect of potential stabilizing agent”) was “did not enhance stability”.

As for `CC(=O)CC(=O)C(F)(F)F` [1,1,1-trifluoroacetylacetone], the “inhibition of binding to tRNA of aflatoxin B1” value in the data set with tRNA is reported as “inhibited”.

As for `O=C1CC(=O)c2ccccc21` [1,3-indandione], the “inhibition of binding to tRNA of aflatoxin B1” value in the data set with tRNA is recorded as “inhibited”. Further, in the data set on Salmonella typhimurium, the “inhibition of mutagenicity of aflatoxin B1” value is “inhibit” and the “inhibition of mutagenicity of benzo[a]pyrene” value is “inhibit”. The “inhibition of mutagenicity of methylnitrosourea” value in the data set on Salmonella typhimurium (concomitant exposure to inhibitor and mutagen necessary) is on record as “inhibit”.

For `CC(=O)C(C)C(C)=O` [3-Methylpentandion, 3-Methylpentanedione], in data set [2], the “acceptance as substrate (in words)” value was “quite good reaction rated”, the Vmaxrel. is 0.25, the KO2 was 40 ± 8 µM and the O2/Substrate was found to be 1.0. In addition, in [3], the “Substrate % (remaining)” value is on record as 18% and the Acetate % came out at 82%. For the same molecule, the Vmax wild-type in [4] was determined as 0.83. Moreover, in data set [5], the Vmax clone is recorded as 0.85.

For `CC(=O)CC(=O)C(C)(C)C` [5,5-Dimethylhexan-2,4-dion, 5,5-Dimethylhexane-2,4-dione], in data set [2], the “acceptance as substrate (in words)” value is “cleaved at significantly lower rates”, the Vmaxrel. is given as 0.25, the KO2 was 70 ± 15 µM and the O2/Substrate was 0.9. Further, in data set [3], the Methylglyoxal/Acetate is reported as 3.3, the “Substrate % (remaining)” value is listed as 9%, the Acetate % is recorded as 21% and the Methylglyoxal % came out at 70%. For the same molecule, the Vmax wild-type in data set [4] worked out at 0.05. The Vmax clone in data set [5] amounted to 0.08.

On to `CC(=O)CC(C)=O` [Acetylacetone, pentane-2,4-dione], for which the “pH up to which the substrate is accepted by the enzyme” value in [2] (activity-pH-relationship studies) is given as at most 9. Also, in data set [2], the Vmaxrel. worked out at 1.00 and the KO2 is 38 ± 6 µM. For the same molecule, in data set [6], the “acetate found per mmol of acetyl-acetone cleaved” value was “one”. Moreover, in [3], the “Substrate % (remaining)” value is on record as 0%, the Acetate % stood at 50% and the Methylglyoxal % is recorded as 50%. Also, in [7] (in vivo), the fetotoxicity result is reported as “fetotoxicity was observed”. For the same molecule, in data set [7] (setting [8]), the immune system toxicity result is “possible immune system toxicity” and the neurotoxicity entry is “central neurotoxicity”. In addition, the Vmax wild-type in data set [4] (setting [9]) came out at 1.00. The Vmax clone in data set [5] (setting [9]) came out at 1.00.

Turning to `CC(=O)CC(=O)c1ccccc1` [benzoylacetone], the “inhibition of binding to tRNA of benzo[a]pyrene” value with tRNA is listed as “inhibited”. In the data set with Salmonella typhimurium, the “inhibition of mutagenicity of 2-naphthohydroxamic acid” value is listed as “inhibit”.

In the case of `O=C(CC(=O)c1ccccc1)c1ccccc1` [dibenzoylmethane], in the data set on tRNA, the “inhibition of binding to tRNA of aflatoxin B1” value is given as “inhibited” and the “inhibition of binding to tRNA of benzo[a]pyrene” value was “inhibited”. Besides, in the data set on Salmonella typhimurium, the “inhibition of mutagenicity of 2-naphthohydroxamic acid” value is “inhibit”, the “inhibition of mutagenicity of aflatoxin B1” value is “inhibit”, the “inhibition of mutagenicity of benzo[a]pyrene” value is “inhibit” and the “inhibition of mutagenicity of methylnitrosourea” value is recorded as “inhibit”.

Regarding `OCC(O)CO` [glycerol], the “effect of potential stabilizing agent” value in data set [1] (setting [10]) is reported as “did not enhance stability”.

On to `OCCS` [mercaptoethanol], for which the “effect of potential stabilizing agent” value in data set [1] is “did not enhance stability”.

Consider “bovine serum albumin: potential stabilizing agent added to the enzyme”, for which the “effect of potential stabilizing agent” value in data set [1] (setting [10]) is on record as “did not enhance stability”.

B1: 1,3-dicarbonyl-dioxygenase: Purified A. johnsonii enzyme, about 67 kDa, subunits of about 16.6 kDa (SEQ ID NO: 2), cleaves 1,3-dicarbonyl compounds with molecular oxygen (protein)
chain: MDYCNKKHTAEEYVKISDNNYVPFPEAFSDGGITWQLLHSSPETSSWTAIFNCPAGSSFASHIHAGPGEYFLTKGKMEVRGGEQEGGSTAYAPSYGFESSGALHGKTFFPVESQFYMTFLGPLNFIDDNGKVIASIGWAEAQGAWLATKNEAA
Regarding B1, the “apparent Vmax of the purified enzyme” value in data set [2] (acetylacetone as substrate) is reported as 10.5 U/mgEnzyme. In data set [1] (0.05 mg/mL protein concentration, 4° C.), the halftime-stability is on record as 3550 min. Moreover, the “pH of maximum stability” value in data set [1] (enzyme incubated at pH 5.0-9.0) is 7.5-8.0. The “pH of maximum activity” value in data set [1] (oxygen electrode, KH2PO4-buffers pH 5.0-9.0) is listed as 6.0-7.5.
